≈ marks a conversion by molar mass, not a printed value.
Columns and labels:
[1] = molecular target: FAP (Homo sapiens (Human), UniProt Q12884); test: hFAP inhibition assay; format: biochemical; settings: hFAP […], Ala-Pro-AMC 20 μM; n = 1 or geometric mean n = 2-3
Procedure, shortened: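 Human FAP (0.48 nM) in 100 mM Tris HCl, 100 mM NaCl, 0.05% Chaps, pH 7.4 was preincubated 15 min at rt in the dark with compounds (10-point, 3-fold series from 50 μM). Substrate was added from a 40 μM solution, then 30 min at rt. Fluorescence read at ex 340/em 460 nm; IC50 from one-site dose-response fit of % inhibition.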

[2] = molecular target: human Fibroblast activation protein alpha (hFAP) (Homo sapiens (Human), UniProt Q12884); test: hFAP inhibition assay (tight binders); format: biochemical; settings: Ala-Pro-AMC 20 μM, n = 1 or geometric mean n = 2-6; note: hFAP 2.4 pM
Method: The plates were read on a PHERAstar® reader with excitation 340 nm and emission 460 nm. Data were analyzed in Genedata Screener®. IC50 values were determined by plotting % inhibition versus log compound concentration and using a one site dose response model.

[3] = molecular target: hFAP (M39-A757) (Homo sapiens (Human), UniProt Q12884); test: hFAP binding assay (surface plasmon resonance); settings: SPR, 20° C.; for hFAP Binding assay k(off) / hFAP Binding assay k(on): single cycle kinetics; for Kd: n = 1 or geometric mean n = 2-4
[4] = molecular target: Prolyl endopeptidase, Prolyl Oligopeptidase (hPREP) (Homo sapiens (Human), UniProt P48147); test: hPrep inhibition assay; format: biochemical; settings: hPREP 0.6 nM, Z-Gly-Pro-amino-methylcoumarin 50 μM; read-out: PREP IC50
Procedure, shortened: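 Recombinant human PREP at 0.6 nM final with Z-Gly-Pro-AMC substrate at 50 μM final in Tris-HCl pH 7.5, NaCl, Triton X-100, glutathione; 15 min rt preincubation then 20 min rt reaction in dark. AMC fluorescence (ex 340/em 460 nm); IC50 from one-site dose-response fit of % inhibition.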

[5] = Metabolic stability in human hepatocytes (hHep); format: in vitro ADME; settings: n = 1 or geometric mean of n = 2
[6] = Kinetic solubility; settings: kinetic from dmso stock
Method: Kinetic solubility was measured as described in Comput Aided Mol Des 2015, 29, 795.

[7] = Caco-2 cell permeability; settings: human
Method: Caco-2 cell permeability was measured as described in Mol Pharm 2017, 14, 1601.

[8] = Metabolic stability in rat hepatocytes (rHep); settings: n = 1 or geometric mean of n = 2-3
[9] = Metabolic stability in human liver microsomes (HLM); settings: human
Method: Metabolic stability in HLM was measured as described in J Comput Aided Mol Des 2015, 29, 795.

[10] = molecular target: FAP (Mus musculus (Mouse), UniProt P97321); test: FAP plasma inhibition assay, mouse plasma; format: biochemical; settings: mouse plasma diluted 1:67, Ala-Pro-AMC 75 μM
Method: This assay was adapted from the method described in Example 237 for detection of FAP target engagement enzyme activity in plasma. Plasma (anticoagulant K2EDTA) was used as the enzyme source: Human plasma (Pooled from AZ Biobank), Mouse plasma (AZ AST Biobank), and Cynomolgus plasma (BioIVT, #NHP00PLK2FNN, lot CYN222895). 384-Well black fluotrack PS plates (Greiner 781076) were used. 20 μL diluted plasma (Cynomolgus and Human plasma dilution 1:40, Mouse plasma dilution 1:67) in buffer (PBS, 0.1% BSA) was added to 0.6 μL compounds (in DMSO). Compounds were tested using 10 CR, 3 fold dilution series from 500 nM FAC. Two replicates for each assay point were run on the same plate. A fluorescence blank read was taken before substrate addition. […] Plates were incubated for 40 min at rt in the dark. […] IC50 values were determined by plotting % inhibition versus log compound concentration.

[11] = Solubility, kinetic solubility, n = 1 or average of n = 2-3
[12] = HLM CLint, n = 1 or average of n = 2-3

Sequence of FAP (Homo sapiens (Human), UniProt Q12884) (Q12884 38-760): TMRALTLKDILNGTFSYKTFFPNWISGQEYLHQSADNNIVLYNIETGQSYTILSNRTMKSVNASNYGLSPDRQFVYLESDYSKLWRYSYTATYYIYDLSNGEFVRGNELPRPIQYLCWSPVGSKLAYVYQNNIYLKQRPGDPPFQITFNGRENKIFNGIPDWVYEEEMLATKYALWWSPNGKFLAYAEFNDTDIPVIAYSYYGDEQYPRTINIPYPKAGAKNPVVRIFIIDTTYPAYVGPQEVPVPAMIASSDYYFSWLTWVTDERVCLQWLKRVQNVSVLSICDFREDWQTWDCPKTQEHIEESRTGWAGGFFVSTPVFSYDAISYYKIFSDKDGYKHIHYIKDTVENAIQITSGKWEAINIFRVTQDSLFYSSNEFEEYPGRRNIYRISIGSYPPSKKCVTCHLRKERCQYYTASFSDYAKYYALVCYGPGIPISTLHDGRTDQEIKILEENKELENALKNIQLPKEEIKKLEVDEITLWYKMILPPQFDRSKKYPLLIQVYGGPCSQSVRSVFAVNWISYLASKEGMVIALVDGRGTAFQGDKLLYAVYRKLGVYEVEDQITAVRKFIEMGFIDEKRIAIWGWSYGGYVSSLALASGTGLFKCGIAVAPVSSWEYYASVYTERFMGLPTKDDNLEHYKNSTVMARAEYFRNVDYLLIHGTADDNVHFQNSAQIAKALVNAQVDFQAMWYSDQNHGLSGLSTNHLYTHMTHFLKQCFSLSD
Sequence of human Fibroblast activation protein alpha (hFAP) (Q12884 38-760): as above
Sequence of hFAP (M39-A757) (Q12884 39-757): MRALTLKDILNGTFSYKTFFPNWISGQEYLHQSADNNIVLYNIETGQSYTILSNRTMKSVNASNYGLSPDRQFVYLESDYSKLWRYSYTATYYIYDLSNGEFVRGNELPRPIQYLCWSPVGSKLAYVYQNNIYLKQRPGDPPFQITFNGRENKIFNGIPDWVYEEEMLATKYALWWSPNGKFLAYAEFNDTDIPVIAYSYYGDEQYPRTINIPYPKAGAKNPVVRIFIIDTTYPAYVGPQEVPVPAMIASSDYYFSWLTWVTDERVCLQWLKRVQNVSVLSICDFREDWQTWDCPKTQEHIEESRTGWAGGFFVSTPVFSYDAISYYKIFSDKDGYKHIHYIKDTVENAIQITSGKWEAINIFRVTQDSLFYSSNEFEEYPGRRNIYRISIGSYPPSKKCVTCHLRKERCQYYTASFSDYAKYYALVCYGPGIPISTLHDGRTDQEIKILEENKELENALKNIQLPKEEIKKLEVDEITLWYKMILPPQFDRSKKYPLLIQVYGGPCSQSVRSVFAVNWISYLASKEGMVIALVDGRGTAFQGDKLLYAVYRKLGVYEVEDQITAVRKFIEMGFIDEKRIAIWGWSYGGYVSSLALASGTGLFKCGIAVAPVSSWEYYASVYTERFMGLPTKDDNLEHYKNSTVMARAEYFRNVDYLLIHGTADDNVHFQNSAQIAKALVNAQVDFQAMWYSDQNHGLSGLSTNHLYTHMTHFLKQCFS
Sequence of Prolyl endopeptidase, Prolyl Oligopeptidase (hPREP) (P48147 whole entry): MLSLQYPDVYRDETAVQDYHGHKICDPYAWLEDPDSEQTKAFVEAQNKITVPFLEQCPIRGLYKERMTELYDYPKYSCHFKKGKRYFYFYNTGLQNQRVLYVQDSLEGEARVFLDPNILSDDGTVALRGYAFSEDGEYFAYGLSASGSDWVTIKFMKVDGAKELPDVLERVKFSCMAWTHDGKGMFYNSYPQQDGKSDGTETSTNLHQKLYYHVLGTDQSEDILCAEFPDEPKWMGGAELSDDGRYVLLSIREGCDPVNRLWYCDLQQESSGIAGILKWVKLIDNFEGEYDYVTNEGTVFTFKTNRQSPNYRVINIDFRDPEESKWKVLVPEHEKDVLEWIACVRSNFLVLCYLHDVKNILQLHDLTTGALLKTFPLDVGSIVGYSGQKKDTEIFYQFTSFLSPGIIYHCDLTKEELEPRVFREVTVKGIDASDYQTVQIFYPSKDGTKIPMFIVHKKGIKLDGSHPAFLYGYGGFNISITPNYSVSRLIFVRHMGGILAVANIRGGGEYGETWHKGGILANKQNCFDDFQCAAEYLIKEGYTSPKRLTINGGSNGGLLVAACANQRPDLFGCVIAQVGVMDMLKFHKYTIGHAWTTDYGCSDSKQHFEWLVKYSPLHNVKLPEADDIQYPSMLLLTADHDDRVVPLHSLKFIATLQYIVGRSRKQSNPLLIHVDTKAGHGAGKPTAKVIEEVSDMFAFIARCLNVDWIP
Sequence of FAP (Mus musculus (Mouse), UniProt P97321) (P97321 24-761): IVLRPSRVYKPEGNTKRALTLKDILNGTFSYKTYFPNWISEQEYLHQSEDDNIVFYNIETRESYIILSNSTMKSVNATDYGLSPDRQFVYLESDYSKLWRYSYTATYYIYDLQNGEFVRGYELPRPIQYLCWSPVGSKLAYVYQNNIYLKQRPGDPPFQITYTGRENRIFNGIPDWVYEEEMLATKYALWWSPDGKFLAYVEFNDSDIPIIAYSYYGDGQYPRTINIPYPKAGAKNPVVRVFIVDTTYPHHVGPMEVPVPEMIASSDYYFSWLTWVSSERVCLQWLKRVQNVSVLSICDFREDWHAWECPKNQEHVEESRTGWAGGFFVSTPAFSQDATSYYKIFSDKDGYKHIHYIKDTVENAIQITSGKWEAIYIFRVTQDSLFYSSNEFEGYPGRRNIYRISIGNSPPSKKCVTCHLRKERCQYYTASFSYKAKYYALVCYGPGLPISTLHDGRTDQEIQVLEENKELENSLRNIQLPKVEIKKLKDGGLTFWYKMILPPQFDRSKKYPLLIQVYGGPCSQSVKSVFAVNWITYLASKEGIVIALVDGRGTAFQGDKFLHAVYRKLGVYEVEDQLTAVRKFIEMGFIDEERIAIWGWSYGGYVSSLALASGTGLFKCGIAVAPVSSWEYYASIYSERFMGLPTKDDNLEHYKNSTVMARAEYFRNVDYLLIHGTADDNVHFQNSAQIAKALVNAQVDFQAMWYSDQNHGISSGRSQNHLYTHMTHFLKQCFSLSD

IC50 [1] [nM]	IC50 [2] [nM]	hFAP Binding assay k(off) [3] [s⁻¹]	hFAP Binding assay k(on) [3] [M⁻¹ s⁻¹]	Kd [3] [nM]	IC50 [4] [nM]	hHep CLint [5] [μL/min/1E6]	solubility [6, 11] [µM]	Papp [7] [×10⁻⁶ cm/s]	Papp A→B [7] [×10⁻⁶ cm/s]	Papp B→A [7] [×10⁻⁶ cm/s]	efflux ratio [7]	rHep CLint [8] [μL/min/1E6]	microsomal CLint [9, 12] [µL/min/mg]	IC50 [10] [nM]	Compound	solubility [6] [µM]	microsomal CLint [9] [µL/min/mg]
0.25	0.083	0.00042	3000000	0.14	740	1.6	280 (≈ 129 µg/mL)	14	0.17	29	170	7.1	32	–	CC1(C)Cc2c(-c3ccc4nccc(C(=O)NCC(=O)N5CSC[C@H]5C#N)c4c3)cnn2C1 [Example 123, (R)—N-(2-(4-Cyanothiazolidin-3-yl)-2-oxoethyl)-6-(5,5-dimethyl-5,6-dihydro-4H-pyrrolo[1,2-b]pyrazol-3-yl)quinoline-4-carboxamide]	–	–
–	0.074	0.00011	2200000	0.047	2400	<1	810 (≈ 408 µg/mL)	–	0.12	4.2	35	1.7	14	–	CS(=O)(=O)C[C@H]1CN(c2ccc3nccc(C(=O)NCC(=O)N4CSC[C@H]4C#N)c3c2)CCO1 [Example 92, N-(2-((R)-4-Cyanothiazolidin-3-yl)-2-oxoethyl)-6-((R)-2-((methylsulfonyl)-methyl)morpholino)quinoline-4-carboxamide]	–	–
0.28	0.12	0.00022	5200000	0.042	510	<1	> 1000	15	3.1	30	9.6	7.2	< 3	–	CO[C@@H]1CN(c2ccc3nccc(C(=O)NCC(=O)N4CSC[C@H]4C#N)c3c2)[C@H]1C [Example 30, N-(2-((R)-4-Cyanothiazolidin-3-yl)-2-oxoethyl)-6-((2S,3R)-3-methoxy-2-methylazetidin-1-yl)quinoline-4-carboxamide]	–	–
0.75	0.35	0.00010	480000	0.38	1100	4.6	> 1000	–	1.2	19	16	20	100	–	C[C@@H]1COC[C@H](C)N1c1ccc2nccc(C(=O)NCC(=O)N3CSC[C@H]3C#N)c2c1 [Example 90, N-(2-((R)-4-Cyanothiazolidin-3-yl)-2-oxoethyl)-6-((3S,5R)-3,5-dimethyl-morpholino)quinoline-4-carboxamide]	–	–
–	0.053	0.000054	1800000	0.03	880	2.7	–	–	2.8	33	12	7.6	21	–	COC1(C)CCN(c2ccc3nccc(C(=O)NCC(=O)N4CSC[C@H]4C#N)c3c2)CC1 [Example 42, (R)—N-(2-(4-Cyanothiazolidin-3-yl)-2-oxoethyl)-6-(4-methoxy-4-methylpiperidin-1-yl)quinoline-4-carboxamide]	–	–
0.29	0.11	0.0002	3000000	0.066	93	<1	390 (≈ 156 µg/mL)	–	3.7	23	6.2	17	15	–	N#C[C@@H]1CSCN1C(=O)CNC(=O)c1ccnc2ccc(N3CC(F)C3)cc12 [Example 21, (R)—N-(2-(4-Cyanothiazolidin-3-yl)-2-oxoethyl)-6-(3-fluoroazetidin-1-yl)quinoline-4-carboxamide]	–	–
–	0.071	0.000099	1900000	0.074	1800	<1	920 (≈ 463 µg/mL)	–	0.15	4.4	29	2.2	7.1	–	CS(=O)(=O)C[C@@H]1CN(c2ccc3nccc(C(=O)NCC(=O)N4CSC[C@H]4C#N)c3c2)CCO1 [Example 94, N-(2-((R)-4-Cyanothiazolidin-3-yl)-2-oxoethyl)-6-((S)-2-((methylsulfonyl)-methyl)morpholino)quinoline-4-carboxamide]	–	–
–	0.099	0.00014	730000	0.18	410	<1	> 1000	–	4.7	29	6.1	4.9	14	–	N#C[C@@H]1CSCN1C(=O)CNC(=O)c1ccnc2ccc(N3CCCCO3)cc12 [Example 1, (R)—N-(2-(4-Cyanothiazolidin-3-yl)-2-oxoethyl)-6-(1,2-oxazinan-2-yl)-quinoline-4-carboxamide]	–	–
–	–	0.000071	1400000	–	930	–	–	–	–	–	–	–	–	0.4	C[C@@H]1OCCN(c2ccc3nccc(C(=O)NCC(=O)N4CSC[C@H]4C#N)c3c2)[C@H]1C [Example 82, N-(2-((R)-4-Cyanothiazolidin-3-yl)-2-oxoethyl)-6-((2S,3S)-2,3-dimethyl-morpholino)quinoline-4-carboxamide]	–	–
0.13	0.055	0.000061	1100000	0.057	500	<1	560 (≈ 246 µg/mL)	26	3.7	37	10	4.5	18	–	COCC1(C)CN(c2ccc3nccc(C(=O)NCC(=O)N4CSC[C@H]4C#N)c3c2)C1 [Example 29, (R)—N-(2-(4-Cyanothiazolidin-3-yl)-2-oxoethyl)-6-(3-(methoxymethyl)-3-methylazetidin-1-yl)quinoline-4-carboxamide]	–	–

Compound	IC50 [1] [nM]	IC50 [2] [nM]	hFAP Binding assay k(off) [3] [s⁻¹]	hFAP Binding assay k(on) [3] [M⁻¹ s⁻¹]	Kd [3] [nM]	IC50 [4] [nM]	hHep CLint [5] [μL/min/1E6]	solubility [6, 11] [µM]	Papp [7] [×10⁻⁶ cm/s]	Papp A→B [7] [×10⁻⁶ cm/s]	Papp B→A [7] [×10⁻⁶ cm/s]	efflux ratio [7]	rHep CLint [8] [μL/min/1E6]	microsomal CLint [9, 12] [µL/min/mg]	IC50 [10] [nM]	solubility [6] [µM]	microsomal CLint [9] [µL/min/mg]
N#C[C@@H]1CSCN1C(=O)CNC(=O)c1ccnc2ccc(N3CCC4(CC3)OCCO4)cc12 [Example 228, (R)—N-(2-(4-cyanothiazolidin-3-yl)-2-oxoethyl)-6-(1,4-dioxa-8-azaspiro[4.5]decan-8-yl)quinoline-4-carboxamide]	–	0.087	–	–	–	1200	<1	–	0.9	25	27	0.9	9	–	–	879 (≈ 411 µg/mL)	< 3
N#C[C@@H]1CSCN1C(=O)CNC(=O)c1ccnc2ccc(N3CCOC4(CCOCC4)C3)cc12 [Example 99, (R)—N-(2-(4-cyanothiazolidin-3-yl)-2-oxoethyl)-6-(1,9-dioxa-4-azaspiro[5.5]undecan-4-yl)quinoline-4-carboxamide]	–	0.12	0.0002	2100000	0.11	1100	1.9	–	–	0.46	21	46	8.1	–	–	800 (≈ 385 µg/mL)	16

— patent US20230312550A1, “N-(2-(4-CYANOTHIAZOLIDIN-3-YL)-2-OXOETHYL)-QUINOLINE-4-CARBOXAMIDES” (AstraZeneca AB, priority 2020, published 2023)
